Laboratory results taken from PubChem BioAssay (NCI).
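Following 48 hours of exposure in 96-well plates, responses at five concentrations were used to interpolate endpoints linearly. Abbreviation: GI50, concentration required for 50% inhibition of growth. TGI: total growth inhibition.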

Assays:
Assay in all cases: NCI tumour cell line growth inhibition, 48 h
NCI-H23 lung = system: NCI-H23 lung
NCI-H460 lung = system: NCI-H460 lung
NCI-H522 lung = system: NCI-H522 lung
NCI/ADR-RES ovarian = system: NCI/ADR-RES ovarian
OVCAR-3 ovarian = system: OVCAR-3 ovarian
OVCAR-4 ovarian = system: OVCAR-4 ovarian
OVCAR-5 ovarian = system: OVCAR-5 ovarian
OVCAR-8 ovarian = system: OVCAR-8 ovarian
PC-3 prostate = system: PC-3 prostate
RPMI-8226 leukemia = system: RPMI-8226 leukemia
RXF 393 renal = system: RXF 393 renal
SF-268 CNS = system: SF-268 CNS
SF-295 CNS = system: SF-295 CNS
SF-539 CNS = system: SF-539 CNS
SK-MEL-2 melanoma = system: SK-MEL-2 melanoma
SK-MEL-28 melanoma = system: SK-MEL-28 melanoma
SK-MEL-5 melanoma = system: SK-MEL-5 melanoma
SK-OV-3 ovarian = system: SK-OV-3 ovarian
SNB-19 CNS = system: SNB-19 CNS
SNB-75 CNS = system: SNB-75 CNS
SR leukemia = system: SR leukemia
SW-620 colon = system: SW-620 colon
T-47D breast = system: T-47D breast
TK-10 renal = system: TK-10 renal
U251 CNS = system: U251 CNS
UACC-257 melanoma = system: UACC-257 melanoma
UACC-62 melanoma = system: UACC-62 melanoma
UO-31 renal = system: UO-31 renal

Cc1nc2cc(-n3c(-c4ccc(F)cc4)nc4ccccc4c3=O)ccc2n1Cc1ccccc1
GI50 (NCI-H23 lung): 4.23 µM
TGI (NCI-H23 lung): 37.6 µM
GI50 (NCI-H460 lung): 2.01 µM
TGI (NCI-H460 lung): 4.09 µM
GI50 (NCI-H522 lung): 1.94 µM
TGI (NCI-H522 lung): 6.49 µM
GI50 (NCI/ADR-RES ovarian): 1.85 µM
TGI (NCI/ADR-RES ovarian): 4.56 µM
GI50 (OVCAR-3 ovarian): 2.35 µM
TGI (OVCAR-3 ovarian): 5.2 µM
GI50 (OVCAR-4 ovarian): 2.24 µM
TGI (OVCAR-4 ovarian): 5.26 µM
GI50 (OVCAR-5 ovarian): 5.48 µM
TGI (OVCAR-5 ovarian): 24.1 µM
GI50 (OVCAR-8 ovarian): 2.31 µM
TGI (OVCAR-8 ovarian): 6.06 µM
GI50 (PC-3 prostate): 1.96 µM
TGI (PC-3 prostate): 5.3 µM
GI50 (RPMI-8226 leukemia): 5.58 µM
TGI (RPMI-8226 leukemia): 39.7 µM
GI50 (RXF 393 renal): 1.89 µM
TGI (RXF 393 renal): 4.26 µM
GI50 (SF-268 CNS): 2.83 µM
TGI (SF-268 CNS): 10.1 µM
GI50 (SF-295 CNS): 2.32 µM
TGI (SF-295 CNS): 5.73 µM
GI50 (SF-539 CNS): 1.91 µM
TGI (SF-539 CNS): 3.79 µM
GI50 (SK-MEL-2 melanoma): 2.32 µM
TGI (SK-MEL-2 melanoma): 8.6 µM
GI50 (SK-MEL-28 melanoma): 2 µM
TGI (SK-MEL-28 melanoma): 3.94 µM
GI50 (SK-MEL-5 melanoma): 2.67 µM
TGI (SK-MEL-5 melanoma): 9.07 µM
GI50 (SK-OV-3 ovarian): 3.55 µM
TGI (SK-OV-3 ovarian): 13.8 µM
GI50 (SNB-19 CNS): 4.57 µM
TGI (SNB-19 CNS): 26.8 µM
GI50 (SNB-75 CNS): 1.49 µM
TGI (SNB-75 CNS): 3.6 µM
GI50 (SR leukemia): 2.7 µM
TGI (SR leukemia): > 100 µM
GI50 (SW-620 colon): 3.16 µM
TGI (SW-620 colon): 19.2 µM
GI50 (T-47D breast): 1.7 µM
TGI (T-47D breast): 4.22 µM
GI50 (TK-10 renal): 2.73 µM
TGI (TK-10 renal): 7.17 µM
GI50 (U251 CNS): 2.19 µM
TGI (U251 CNS): 5.18 µM
GI50 (UACC-257 melanoma): 2.64 µM
TGI (UACC-257 melanoma): 6.68 µM
GI50 (UACC-62 melanoma): 2.8 µM
TGI (UACC-62 melanoma): 9.79 µM
GI50 (UO-31 renal): 2.15 µM
TGI (UO-31 renal): 8.42 µM
